Data set [1] deals with T1, Protein cereblon/Mixed lineage kinase domain-like protein (Homo sapiens, UniProt Q8NB16+Q96SW2). The data set can be described thus: PROTAC activity at CRBN/MLKL in TSZ-induced human HT29 cells assessed as suppression of phosphorylated protein in cell lysates at 10 uM incubated for 4 hrs measured by capillary immunoassay. The format is subcellular. The following applies: HT-29.
Target sequence in this assay (Q96SW2 whole entry, looked up, one chain of several, the tested form may be a part): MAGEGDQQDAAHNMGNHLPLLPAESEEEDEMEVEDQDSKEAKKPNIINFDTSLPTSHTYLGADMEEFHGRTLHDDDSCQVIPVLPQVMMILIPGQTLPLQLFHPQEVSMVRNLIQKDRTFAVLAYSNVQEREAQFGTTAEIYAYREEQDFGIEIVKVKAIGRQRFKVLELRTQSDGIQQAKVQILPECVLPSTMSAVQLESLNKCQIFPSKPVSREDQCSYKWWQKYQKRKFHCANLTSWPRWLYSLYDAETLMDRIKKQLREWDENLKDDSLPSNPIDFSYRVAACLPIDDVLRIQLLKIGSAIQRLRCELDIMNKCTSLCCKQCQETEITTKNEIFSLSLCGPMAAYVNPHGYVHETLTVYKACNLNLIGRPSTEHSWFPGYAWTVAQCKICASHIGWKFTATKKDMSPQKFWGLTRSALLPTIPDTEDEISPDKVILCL

Data set [2] concerns the target T1, Protein cereblon/Mixed lineage kinase domain-like protein. Nature of the data set: PROTAC activity at CRBN/MLKL in human HK-2 cells assessed as remaining protein level in cell lysates at 0.1 to 10 uM incubated for 24 hrs measured by capillary immunoassay. It is filed as subcellular. The following applies: dose 0.1-10 µM.
Target sequence in this assay (Q96SW2 whole entry, looked up, one chain of several, the tested form may be a part): as above
Data set [3] shares this target. Nature of the data set: PROTAC activity at CRBN/MLKL in TSZ-induced human HT29 cells assessed as remaining protein level in cell lysates preincubated with MG-132 for 30 mins followed by treated at 10 uM for 8 hrs measured by capillary immunoassay. The following applies: HT-29. It is filed as subcellular.
Target sequence in this assay (Q96SW2 whole entry, looked up, one chain of several, the tested form may be a part): as above
Data set [4] concerns the target Protein cereblon/Receptor-interacting serine/threonine-protein kinase 2 (Homo sapiens) (UniProt O43353+Q96SW2). The data set can be described thus: PROTAC activity at CRBN/RIPK2 in human HT29 cells assessed as remaining protein level in cell lysates at 10 uM incubated for 24 hrs measured by capillary immunoassay relative to vehicle treated control. It is filed as subcellular. The following applies: HT-29.

Data set [5] has as its target T1, Protein cereblon/Mixed lineage kinase domain-like protein. The data set can be described thus: PROTAC activity at CRBN/MLKL in human HT29 cells assessed as remaining protein level in cell lysates at 10 uM incubated upto 8 hrs measured by capillary immunoassay relative to vehicle treated control. It is filed as subcellular. The following applies: HT-29.
Target sequence in this assay (Q96SW2 whole entry, looked up, one chain of several, the tested form may be a part): as above
In data set [6] the target is T2, Mixed lineage kinase domain-like protein (Homo sapiens) (UniProt Q8NB16).
T2 sequence (whole entry): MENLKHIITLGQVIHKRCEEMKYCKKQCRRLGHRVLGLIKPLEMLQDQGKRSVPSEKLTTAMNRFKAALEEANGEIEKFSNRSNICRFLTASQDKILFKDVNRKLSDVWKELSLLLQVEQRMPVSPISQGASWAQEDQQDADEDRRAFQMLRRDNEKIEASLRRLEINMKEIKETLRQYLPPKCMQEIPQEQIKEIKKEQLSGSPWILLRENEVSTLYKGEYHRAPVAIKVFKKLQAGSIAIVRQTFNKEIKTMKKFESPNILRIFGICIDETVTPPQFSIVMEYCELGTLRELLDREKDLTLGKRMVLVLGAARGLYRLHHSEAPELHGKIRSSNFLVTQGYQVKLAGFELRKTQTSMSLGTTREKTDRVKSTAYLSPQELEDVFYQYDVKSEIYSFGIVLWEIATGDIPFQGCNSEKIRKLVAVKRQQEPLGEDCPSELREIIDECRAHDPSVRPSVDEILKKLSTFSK
The data set can be described thus: Induction of MLKL degradation in human HT-29 cells assessed as remaining protein level in cell lysates incubated for 24 hrs measured by capillary immunoassay. It is filed as subcellular.

For data set [7], the system named is HT-29. Nature of the data set: Cytotoxicity against human HT-29 cells assessed as cell viability at 10 uM incubated for 24 hrs in presence of 3-(4-((difluoromethyl)sulfonamido)phenyl)-5-((3-methoxyphenyl)amino)-1H-pyrazole-4-carboxamide by CellTiter-Glo assay. It is filed as toxicity, cell-based. The following applies: ht-29, 24 h. (In general: In ATP-based viability assays light output follows the ATP content of the culture.)

Data set [8] deals with T1, Protein cereblon/Mixed lineage kinase domain-like protein. Nature of the data set: PROTAC activity at CRBN/MLKL in human HEK-a cells assessed as remaining protein level in cell lysates at 0.1 to 10 uM incubated for 24 hrs measured by capillary immunoassay. It is filed as subcellular. The following applies: dose 0.1-10 µM.
Target sequence in this assay (Q96SW2 whole entry, looked up, one chain of several, the tested form may be a part): as the sequence (Q96SW2 whole entry, looked up, one chain of several, the tested form may be a part) above
For data set [9] the target is unchanged. Nature of the data set: PROTAC activity at CRBN/MLKL in human HT29 cells assessed as remaining protein level in cell lysates at 10 uM incubated upto 5 hrs measured by capillary immunoassay relative to vehicle treated control. The format is subcellular. The following applies: HT-29.
Target sequence in this assay (Q96SW2 whole entry, looked up, one chain of several, the tested form may be a part): as the sequence (Q96SW2 whole entry, looked up, one chain of several, the tested form may be a part) above
Data set [10] shares this target. Nature of the data set: PROTAC activity at CRBN/MLKL in human HT29 cells assessed as remaining protein level in cell lysates incubated for 72 hrs measured by capillary immunoassay. It is filed as subcellular. The following applies: HT-29.
Data set [11] has the same target. Nature of the data set: PROTAC activity at CRBN/MLKL in TSZ-induced human HT29 cells assessed as suppression of phosphorylated protein in cell lysates at 10 uM incubated for 8 hrs measured by capillary immunoassay. It is filed as subcellular. The following applies: HT-29.
For data set [12], the target named is T3, Receptor-interacting serine/threonine-protein kinase 1 (Homo sapiens) (UniProt Q13546).
T3 sequence (whole entry): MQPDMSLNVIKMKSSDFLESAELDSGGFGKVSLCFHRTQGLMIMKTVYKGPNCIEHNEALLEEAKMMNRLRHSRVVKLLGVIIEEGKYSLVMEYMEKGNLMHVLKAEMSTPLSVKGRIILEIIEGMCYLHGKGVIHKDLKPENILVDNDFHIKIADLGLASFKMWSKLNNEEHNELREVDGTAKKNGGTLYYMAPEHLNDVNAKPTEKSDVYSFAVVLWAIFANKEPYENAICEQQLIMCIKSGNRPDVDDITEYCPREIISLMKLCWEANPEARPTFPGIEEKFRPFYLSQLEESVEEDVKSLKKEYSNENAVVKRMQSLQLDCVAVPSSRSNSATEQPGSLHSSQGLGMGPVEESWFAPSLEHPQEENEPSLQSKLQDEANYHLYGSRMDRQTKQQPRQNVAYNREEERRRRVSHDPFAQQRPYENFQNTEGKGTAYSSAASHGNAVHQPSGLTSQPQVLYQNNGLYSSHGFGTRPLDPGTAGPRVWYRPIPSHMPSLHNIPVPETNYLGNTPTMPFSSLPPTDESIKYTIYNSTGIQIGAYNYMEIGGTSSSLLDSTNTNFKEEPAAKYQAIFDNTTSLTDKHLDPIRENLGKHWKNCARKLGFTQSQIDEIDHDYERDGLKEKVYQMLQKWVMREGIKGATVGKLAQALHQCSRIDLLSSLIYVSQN
Nature of the data set: Binding affinity to wild type human RIPK1 (M1/K305) expressed in bacterial expression system measured upto 10 uM by Eurofins-DiscoverX KINOMEscanTM KdELECT assay.

The target of data set [13] is T1, Protein cereblon/Mixed lineage kinase domain-like protein. The data set can be described thus: PROTAC activity at CRBN/MLKL in human MKN74 cells assessed as remaining protein level in cell lysates at 0.1 to 10 uM incubated for 24 hrs measured by capillary immunoassay. It is filed as subcellular. The following applies: dose 0.1-10 µM.
Data set [14] deals with Protein cereblon/Mixed lineage kinase domain-like protein (Mus musculus) (UniProt Q8C7D2+Q9D2Y4). The data set can be described thus: PROTAC activity at CRBN/MLKL in mouse NIH-3T3 cells assessed as remaining protein level in cell lysates at 0.1 to 10 uM incubated for 24 hrs measured by capillary immunoassay. It is filed as subcellular. The following applies: dose 0.1-10 µM.
Protein cereblon/Mixed lineage kinase domain-like protein (Mus musculus), sequence (Q8C7D2 whole entry, looked up, the tested form may be a part): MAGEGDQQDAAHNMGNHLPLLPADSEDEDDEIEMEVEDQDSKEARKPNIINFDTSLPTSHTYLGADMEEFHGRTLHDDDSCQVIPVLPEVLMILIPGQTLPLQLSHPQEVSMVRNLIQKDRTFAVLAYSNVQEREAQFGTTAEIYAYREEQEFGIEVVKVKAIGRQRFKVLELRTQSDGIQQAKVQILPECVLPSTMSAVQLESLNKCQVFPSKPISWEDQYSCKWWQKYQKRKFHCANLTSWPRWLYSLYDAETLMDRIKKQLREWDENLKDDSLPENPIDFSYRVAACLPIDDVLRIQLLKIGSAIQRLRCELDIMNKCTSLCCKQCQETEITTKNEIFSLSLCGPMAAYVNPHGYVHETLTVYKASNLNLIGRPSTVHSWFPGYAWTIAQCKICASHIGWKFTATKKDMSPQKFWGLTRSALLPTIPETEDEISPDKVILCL
Protein cereblon/Mixed lineage kinase domain-like protein (Mus musculus), sequence (Q9D2Y4 whole entry, looked up, the tested form may be a part): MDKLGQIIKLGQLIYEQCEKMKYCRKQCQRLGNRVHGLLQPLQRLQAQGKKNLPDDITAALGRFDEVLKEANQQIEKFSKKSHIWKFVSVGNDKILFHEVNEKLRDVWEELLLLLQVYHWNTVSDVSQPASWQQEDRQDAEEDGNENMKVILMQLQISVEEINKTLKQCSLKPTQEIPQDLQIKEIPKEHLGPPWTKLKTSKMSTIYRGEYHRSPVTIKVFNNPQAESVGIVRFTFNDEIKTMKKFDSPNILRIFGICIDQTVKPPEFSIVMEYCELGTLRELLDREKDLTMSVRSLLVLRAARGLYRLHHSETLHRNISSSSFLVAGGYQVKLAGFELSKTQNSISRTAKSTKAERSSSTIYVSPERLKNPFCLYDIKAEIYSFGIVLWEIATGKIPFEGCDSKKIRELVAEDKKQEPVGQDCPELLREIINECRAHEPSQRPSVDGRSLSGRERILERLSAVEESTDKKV

The target of data set [15] is Protein cereblon/Receptor-interacting serine/threonine-protein kinase 1 (Homo sapiens) (UniProt Q13546+Q96SW2). Nature of the data set: PROTAC activity at CRBN/RIPK1 in human HT29 cells assessed as remaining protein level in cell lysates at 10 uM incubated for 24 hrs measured by capillary immunoassay relative to vehicle treated control. It is filed as subcellular. The following applies: HT-29.
Protein cereblon/Receptor-interacting serine/threonine-protein kinase 1 (Homo sapiens), sequence (Q96SW2 whole entry, looked up, one chain of several): as the sequence (Q96SW2 whole entry, looked up, one chain of several, the tested form may be a part) above

The target in data set [16] is T1, Protein cereblon/Mixed lineage kinase domain-like protein. The data set can be described thus: PROTAC activity at CRBN/MLKL in human HT-29 cells assessed as degraded protein level in cell lysates at 10 uM incubated for 24 hrs measured by capillary immunoassay relative to vehicle treated control. It is filed as subcellular.
The test system of data set [17] is HT-29. The data set can be described thus: Protection against TSZ-induced necroptosis in human HT-29 cells assessed as cell viability incubated for 24 hrs by CellTiter Glo assay. The following applies: HT-29, 24 h.
Data set [18] addresses Receptor-interacting serine/threonine-protein kinase 3 (Homo sapiens) (UniProt Q9Y572). Nature of the data set: Binding affinity to wild type human RIPK3 (M1/Q307) expressed in bacterial expression system measured upto 10 uM by Eurofins-DiscoverX KINOMEscanTM KdELECT assay.
Data set [19] deals with T1, Protein cereblon/Mixed lineage kinase domain-like protein. Nature of the data set: PROTAC activity at CRBN/MLKL in human HT-29 cells assessed as degraded protein level in cell lysates incubated for 24 hrs measured by capillary immunoassay relative to vehicle treated control. It is filed as subcellular.
The test system of data set [20] is HT-29. The data set can be described thus: Cytotoxicity against human HT-29 cells assessed as cell viability at 10 uM incubated for 24 hrs in presence of lenalidomide by CellTiter-Glo assay. The format is toxicity, cell-based. The following applies: ht-29, 24 h.

Each structure is given as a SMILES string. Active and inactive are the calls of the source. No cut-off for these calls is given here. Some results are limits rather than exact numbers.

Receptor-interacting serine/threonine-protein kinase 3 (Homo sapiens), sequence (Q9Y572 whole entry, looked up, the tested form may be a part): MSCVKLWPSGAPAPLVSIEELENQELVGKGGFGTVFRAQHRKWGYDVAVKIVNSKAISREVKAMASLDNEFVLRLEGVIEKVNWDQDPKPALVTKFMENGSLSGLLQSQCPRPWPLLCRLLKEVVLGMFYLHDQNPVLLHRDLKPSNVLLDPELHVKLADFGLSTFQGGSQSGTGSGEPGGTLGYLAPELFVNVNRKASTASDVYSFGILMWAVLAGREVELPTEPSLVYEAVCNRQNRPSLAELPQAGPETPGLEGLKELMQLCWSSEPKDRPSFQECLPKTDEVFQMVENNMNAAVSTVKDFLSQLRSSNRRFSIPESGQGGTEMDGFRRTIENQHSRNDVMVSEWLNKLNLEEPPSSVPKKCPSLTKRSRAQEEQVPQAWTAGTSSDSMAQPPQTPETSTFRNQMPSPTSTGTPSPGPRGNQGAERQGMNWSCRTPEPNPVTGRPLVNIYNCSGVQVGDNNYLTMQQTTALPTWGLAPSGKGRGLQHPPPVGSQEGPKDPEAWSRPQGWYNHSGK
Protein cereblon/Receptor-interacting serine/threonine-protein kinase 2 (Homo sapiens), sequence (O43353 whole entry, looked up): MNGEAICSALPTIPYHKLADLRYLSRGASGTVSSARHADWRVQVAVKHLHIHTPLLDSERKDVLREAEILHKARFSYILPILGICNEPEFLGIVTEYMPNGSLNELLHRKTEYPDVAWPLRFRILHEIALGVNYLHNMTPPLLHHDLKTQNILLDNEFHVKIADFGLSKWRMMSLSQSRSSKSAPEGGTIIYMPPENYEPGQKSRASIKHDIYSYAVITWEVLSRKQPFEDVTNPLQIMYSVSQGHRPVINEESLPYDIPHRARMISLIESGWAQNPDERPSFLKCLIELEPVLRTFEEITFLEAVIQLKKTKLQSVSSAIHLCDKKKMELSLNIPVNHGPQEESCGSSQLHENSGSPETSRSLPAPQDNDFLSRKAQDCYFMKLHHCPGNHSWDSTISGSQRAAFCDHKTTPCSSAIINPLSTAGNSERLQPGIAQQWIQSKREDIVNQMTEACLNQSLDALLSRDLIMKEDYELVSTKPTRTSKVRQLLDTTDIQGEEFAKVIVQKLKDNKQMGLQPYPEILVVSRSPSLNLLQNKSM
Protein cereblon/Receptor-interacting serine/threonine-protein kinase 2 (Homo sapiens), sequence (Q96SW2 whole entry, looked up): as the sequence (Q96SW2 whole entry, looked up, one chain of several, the tested form may be a part) above

In the case of `COc1ccc(C(=O)N2CCC3(CCN(C(=O)CCCCCCCOc4cccc(Nc5[nH]nc(-c6ccc(NS(=O)(=O)C(F)F)cc6)c5C(N)=O)c4)CC3)CC2)cc1N1CCC(=O)NC1=O`, the outcome in data set [1], in [2], in data set [5], in data set [8], in data set [10] and in data set [11] was Active. Besides, the result in data set [13] and in [14] was Active. Besides, the outcome in data set [3], in [4], in [6], in data set [12], in data set [15] and in data set [18] was inactive. Moreover, the Activity entry with HT-29 [7] was “Non-Toxic”; in data set [9] it was less than 10%; in [16], greater than 90%; in data set [19] (dose 0.1-10 µM), “Dose-Dependent Effect”; in the data set on HT-29 [20] it was “Non-Toxic”. The EC50 (in general, the concentration giving half of the maximal effect) came to 1200 nM with HT-29 [17] and 2400 nM in [19].
